Earlier results in US7413690B1, “Process and apparatus for producing spherical pellets using molten solid matrices” (The University of Mississippi, priority 2003, dated 2008).

Compound | water solubility (in words)
C[C@@H]1C[C@H]2[C@@H]3CCC4=CC(=O)C=C[C@]4(C)[C@@]3(F)[C@@H](O)C[C@]2(C)[C@@]1(O)C(=O)CO [Dexamethasone] | water insoluble
Cn1c(=O)c2[nH]cnc2n(C)c1=O [theophylline] | water soluble
